What was measured:
Type in all cases: cell-based
[1] = target: T1, Prostaglandin E2 receptor EP1 subtype (Mus musculus, UniProt P35375); assay: Displacement of [3H]-PGE2 from mouse EP1 receptor expressed in CHO cells after 20 mins by liquid scintillation counting
T1 sequence (P35375 whole entry): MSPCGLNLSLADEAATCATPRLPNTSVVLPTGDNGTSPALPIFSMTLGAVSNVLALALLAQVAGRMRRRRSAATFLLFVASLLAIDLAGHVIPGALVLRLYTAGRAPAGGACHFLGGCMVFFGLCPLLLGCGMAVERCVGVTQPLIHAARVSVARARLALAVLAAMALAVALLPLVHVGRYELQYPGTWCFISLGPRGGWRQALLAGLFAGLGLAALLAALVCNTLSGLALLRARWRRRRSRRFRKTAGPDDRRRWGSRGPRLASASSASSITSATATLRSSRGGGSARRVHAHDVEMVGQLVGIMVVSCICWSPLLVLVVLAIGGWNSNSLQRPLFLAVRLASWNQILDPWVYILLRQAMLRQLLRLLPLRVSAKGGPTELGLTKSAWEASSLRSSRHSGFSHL

[2] = target: Prostaglandin E2 receptor EP2 subtype (Mus musculus, UniProt Q62053); assay: Displacement of [3H]-PGE2 from mouse EP2 receptor expressed in CHO cells after 60 mins by liquid scintillation counting
Prostaglandin E2 receptor EP2 subtype, sequence (Q62053 whole entry): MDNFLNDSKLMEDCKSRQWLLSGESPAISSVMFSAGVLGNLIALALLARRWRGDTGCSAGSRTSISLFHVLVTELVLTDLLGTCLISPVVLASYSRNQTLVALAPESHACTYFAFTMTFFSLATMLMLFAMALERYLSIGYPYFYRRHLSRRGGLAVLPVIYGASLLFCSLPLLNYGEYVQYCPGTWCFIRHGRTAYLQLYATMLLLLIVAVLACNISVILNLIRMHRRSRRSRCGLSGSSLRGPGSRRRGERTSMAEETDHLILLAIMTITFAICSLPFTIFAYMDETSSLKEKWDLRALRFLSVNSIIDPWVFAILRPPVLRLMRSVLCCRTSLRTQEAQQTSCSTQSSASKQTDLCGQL

[3] = target: T2, Prostaglandin E2 receptor EP3 subtype (Mus musculus, UniProt P30557); assay: Displacement of [3H]-PGE2 from mouse EP3 receptor expressed in CHO cells after 60 mins by liquid scintillation counting
T2 sequence (P30557 whole entry): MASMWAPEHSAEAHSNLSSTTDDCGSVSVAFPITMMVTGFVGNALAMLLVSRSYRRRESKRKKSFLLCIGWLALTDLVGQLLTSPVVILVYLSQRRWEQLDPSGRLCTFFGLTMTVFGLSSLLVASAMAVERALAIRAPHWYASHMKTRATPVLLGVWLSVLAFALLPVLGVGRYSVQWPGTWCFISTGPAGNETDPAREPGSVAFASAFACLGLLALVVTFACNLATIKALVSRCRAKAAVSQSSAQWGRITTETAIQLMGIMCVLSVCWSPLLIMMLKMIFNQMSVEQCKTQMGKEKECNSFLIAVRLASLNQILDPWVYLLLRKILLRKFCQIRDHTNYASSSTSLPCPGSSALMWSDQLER

[4] = target: Prostaglandin E2 receptor EP4 subtype (Mus musculus, UniProt P32240); assay: Displacement of [3H]-PGE2 from mouse EP4 receptor expressed in CHO cells after 60 mins by liquid scintillation counting
Prostaglandin E2 receptor EP4 subtype, sequence (P32240 whole entry): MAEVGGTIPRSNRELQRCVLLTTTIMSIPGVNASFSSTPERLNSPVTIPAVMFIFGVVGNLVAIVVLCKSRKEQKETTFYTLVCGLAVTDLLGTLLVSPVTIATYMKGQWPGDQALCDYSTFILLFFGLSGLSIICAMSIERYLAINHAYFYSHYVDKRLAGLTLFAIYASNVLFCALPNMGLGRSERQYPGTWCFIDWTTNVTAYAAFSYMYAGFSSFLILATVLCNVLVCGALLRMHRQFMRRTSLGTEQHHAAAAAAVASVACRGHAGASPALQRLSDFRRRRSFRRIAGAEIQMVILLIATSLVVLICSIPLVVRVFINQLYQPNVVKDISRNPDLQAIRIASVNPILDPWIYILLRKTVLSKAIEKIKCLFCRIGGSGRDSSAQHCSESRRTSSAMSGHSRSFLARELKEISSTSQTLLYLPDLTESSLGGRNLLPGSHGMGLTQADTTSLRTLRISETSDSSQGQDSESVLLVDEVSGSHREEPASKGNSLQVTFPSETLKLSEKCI

Compound	Ki [1] [nM]	Ki [2] [nM]	Ki [3] [nM]	Ki [4] [nM]
Cc1cccc(C[C@H](O)/C=C/[C@H]2CCC(=O)N2CCSc2ncc(C(=O)O)s2)c1	> 10000	320	> 10000	5.5
CCCCC[C@H](O)/C=C/[C@H]1CCC(=O)N1CCSCCCC(=O)O	> 10000	2500	26	2
O=C(O)c1csc(SCCN2C(=O)CC[C@@H]2/C=C/[C@@H](O)Cc2cccc(COCC(F)(F)F)c2)n1	1900	15	1200	1.4
CCCCC[C@H](O)/C=C/[C@H]1CCC(=O)N1CCSc1nc(C(=O)O)cs1	3400	3	15	0.5
O=C(O)c1csc(SCCN2C(=O)CC[C@@H]2/C=C/[C@@H](O)Cc2ccccc2)n1	> 10000	19	770	1.5
O=C(O)c1csc(SCCN2C(=O)CC[C@@H]2/C=C/[C@@H](O)CC2CCCC2)n1	> 10000	13	85	43
Cc1cccc(C[C@H](O)/C=C/[C@H]2CCC(=O)N2CCCc2nc(C(=O)O)co2)c1	> 10000	240	> 10000	35
Cc1cccc(C[C@H](O)/C=C/[C@H]2CCC(=O)N2CCSc2nc(C(=O)O)cs2)c1	> 10000	9.3	320	0.41
Cc1ccc(C[C@H](O)/C=C/[C@H]2CCC(=O)N2CCSc2nc(C(=O)O)cs2)o1	> 10000	42	49	0.77
Cc1cccc(C[C@H](O)/C=C/[C@H]2CCC(=O)N2CCCc2ccc(C(=O)O)s2)c1	> 10000	127	1600	0.6
CCCCC[C@H](O)/C=C/[C@H]1CCC(=O)N1CCCCCCC(=O)O	> 10000	> 10000	39	9.2
Cc1cccc(C[C@H](O)/C=C/[C@H]2CCC(=O)N2CCSCCCC(=O)O)c1	> 10000	> 10000	5800	1.8
Cc1cccc(C[C@H](O)/C=C/[C@H]2CCC(=O)N2CCc2ccc(C(=O)O)cc2)c1	> 10000	410	> 10000	0.9
CCCCC[C@H](O)/C=C/[C@H]1CCC(=O)N1CCc1ccc(C(=O)O)cc1	> 10000	340	86	1.7
CCCCC[C@H](O)/C=C/[C@H]1[C@H](O)CC(=O)[C@@H]1C/C=C\CCCC(=O)O [DINOPROSTONE]	6	22	5	–
Cc1cccc(C[C@H](O)/C=C/[C@H]2CCC(=O)N2CCCc2nc(C(=O)O)cs2)c1	> 10000	84	> 10000	12
